According to US20230289968A1, “AUTOMATED ANALYSIS OF CELL CULTURES” (Hoffmann-La Roche Inc., priority 2020, published 2023):

Columns and labels:
[1] = test system: MDA-MB-231 cells co-cultured with CAFs; experiment: Breast-cancer-on-chip co-culture with cancer-associated fibroblasts, STAMP apoptosis rate; type: cell-based; conditions: 1 µM doxorubicin, 6:1 cancer:CAF ratio, TLAG = 4 h, 68 hrs
Experimental: MDA-MB-231 cancer cells were co-cultured on-chip +/- cancer-associated fibroblasts (CAFs) and +/- doxorubicin (1 µM) treatment. Final CAF:cancer ratio was 1:6. […] The data are the means of 3 measurements coming from 3 videos of the same experiment (+/- SEM). The data illustrating the MDA-MB-231 without CAFs conditions come from the same videos analyzed for FIG. 4 but with different time-interval resolution.
Cell cultures The MDA-MB-231 cell line, from triple negative breast cancer, was cultured in high-glucose DMEM (GE Healthcare, #SH30081.01) supplemented with 10% fetal bovine serum (Biosera), 1% Penicillin/Streptomycin (Gibco), 1% glutamine (Gibco). The IGR-Pub lung adenocarcinoma cells and the autologous T cells P62 were harvested from the same patient in Institut Gustave Roussy. […]
Having established that the STAMP method accurately monitors cancer death within co-cultures of cancer and T cells, we moved to bi-cultures of cancer cells and cancer-associated fibroblasts (CAFs). […] Since it is well established that CAFs contribute to chemoresistance in various cancer types, by co-culturing primary breast CAFs with the breast cancer MDA-MB-231 cells, we assessed the capacity of ToC to recapitulate the CAF impact on doxorubicin resistance ex vivo.

MDA-MB-231 cells = experiment: Breast-cancer-on-chip culture, time-lapse imaging analysed with STAMP (apoptosis rate, Pdeath); type: cell-based; conditions: 1 µM doxorubicin
Experimental: Cell cultures The MDA-MB-231 cell line, from triple negative breast cancer, was cultured in high-glucose DMEM (GE Healthcare, #SH30081.01) supplemented with 10% fetal bovine serum (Biosera), 1% Penicillin/Streptomycin (Gibco), 1% glutamine (Gibco). The IGR-Pub lung adenocarcinoma cells and the autologous T cells P62 were harvested from the same patient in Institut Gustave Roussy. The IGR-Pub cells were cultured in DMEM F12 (GIBCO) supplemented with 10% fetal bovine serum (Biosera), 1% of Ultroser G (Pall), 1% of Sodium Pyruvate (Gibco) and 1% Penicillin/Streptomycin (GIBCO). P62 T cells were cultured in RPMI-1640 (GE Healthcare) supplemented with 10% human AB serum (Institut Jacques Boy, Reims, France), rIL-2 (20 U/ml, Gibco), 1% of Sodium Pyruvate (Gibco) and 0.1% Penicillin/Streptomycin (Gibco). Primary cancer-associated fibroblasts (CAFs) were isolated and cultured as previously reported. All cell lines were periodically tested to exclude mycoplasma contamination using a qPCR-based method (VenorGem Classic, BioValley, #11-1250). The MDA-MB-231 cell line was authenticated by SRT profiling (GenePrint 10 system, Promega, #B9510). Doxorubicin was purchased from Teva pharmaceuticals (200 mg/ml).
Tumor-on-chip preparation The microfluidic devices were purchased from AIM-Biotech (#DAX-1). Cells were seeded in the central chamber of the DAX-1 chips embedded in a matrix composed of type I rat tail collagen (Thermofisher, #A1048301) at the final concentration of 2.3 mg/ml. Cancer cells were seeded in the gel at a final density of 2×10^6 cells/ml. Autologous T cells were added at final densities of 0.2×10^6 to 2×10^6 cells/ml in order to obtain different ratios (from 10:1 to 1:1) between cancer and T cells. Primary CAFs were added at cancer:CAF 6:1 ratio. The microfluidic devices were incubated for 30 min at 37° C. in a humidified chamber to allow the polymerization of the collagen solution; afterwards, 120 µl of culture medium were added in each lateral chamber. MDA-MB-231 cells in chip were cultured in the same medium used for dish 2D culture, whereas the IGR-Pub/P62 cells co-cultures were cultured in T-cell medium, supplemented with rIL-2 (10 U/ml, GIBCO, #PHC0027). After the addition of the medium, the microfluidic devices were kept for 1 hour in the incubator before transfer to the incubating chamber of the microscope for imaging.
Cell staining Cancer cells were labeled with CellTrace™ Yellow (Thermofisher, #C34567) before seeding in the gel, for the detection in the so-called “red channel” of fluorescence. […] CellTrace™ exists in 4 colours so up to 5 different cell populations could potentially be analysed separately (4 colours + unstained) by staining the cells prior to mixing. […]

SMILES: COc1cccc2c1C(=O)c1c(O)c3c(c(O)c1C2=O)C[C@@](O)(C(=O)CO)C[C@@H]3O[C@H]1C[C@H](N)[C@H](O)[C@H](C)O1 [doxorubicin]
- doxorubicin-dependent apoptotic increase in presence of CAFs [1]: completely impaired
- latency in the response to doxorubicin (MDA-MB-231 cells; 3D on-chip (FIG. 4C, right)): 20 h
- death rate during the first 20 hrs of treatment (MDA-MB-231 cells; TLAG = 10 hrs, 3D on-chip): remained at basal level
- death rate (apoptosis rate) in 10 hrs-time-intervals (MDA-MB-231 cells; after 20 hrs of exposure, TLAG = 10 hrs, 3D on-chip, 72 h): more than 10%
- Potential of death induction (Pdeath) increase (MDA-MB-231 cells; during the first 2 days, remains high during the 3rd day, T̃ = 16 hr): 3-4 fold
